According to patent US4672054A, “Process for the preparation of angiotensin-II analogues substituted in the 1-, 5- and 8- positions” (Richter Gedeon Vegyeszeti Gyar Rt., priority 1984, dated 1987):
Where two headings read alike, the source gives them in different places. Where a SMILES comes first, the peptide text is derived from it. [ ]: non-standard residue; d: D form. The star is where a group is joined. Gly(cPent) = N[C@H](C(=O)O)C1CCCC1; Chg = N[C@H](C(=O)O)C1CCCCC1; Lac = C[C@H](O)C(=O)O; Glycolyl = O=C(CO)*; Sar = CNCC(=O)O

Tests used:
awake rats [1] = assay: temporary (initial) hypertensive activity on awake rats; format: in vivo, rat; settings: administered into the jugular vein every 20 minutes
Experimental: The temporary hypertensive activity of the AII analogues was tested also on awake rats. AII analogues were administered into the jugular vein in every 20 minutes. The results were evaluated by variancy analysis. The comparative results obtained on [Sar^1, Chg^5, Lac^8 ]-AII are shown on FIG. 2.

aldosterone production = format: cell-based
Experimental: (§1) The octapeptides of the formula (I) are purified in a manner known per se, preferably by cellulose ion exchange chromatography. As a result, compounds are generally obtained as lyophilized powders, which can be converted into the corresponding acid addition salts or complexes. The inhibiting effect of the compounds of the formula (I) on the aldosterone production and vasoconstriction was tested in in vitro experiments.

[2] = test system: isolated rabbit aorta vessel preparate; format: cell-based
Experimental: as §1
In the latter test the inhibition of vasoconstriction induced by AII is measured on isolated rabbit aorta vessel preparate [J. Pharmacol. Exp. Ther., 108, 129 (1953)].

[3] = Eur. J. Clin. Pharm., 23, 7 (1982); cited from earlier work
aldosterone release = settings: Eur. J. Clin. Pharm., 23, 7 (1982); cited from earlier work
awake rats [4] = assay: hypotensive activity in vivo on awake rats (modified method by Pals), AII challenge; design: species or system rat; settings: peptide 1 mg/kg subcutaneously, 1.0 μg/kg AII intravenously from the fifth minute over three hours
Experimental: The hypotensive activity of the new compounds was tested in vivo on awake rats, according to the modified method by Pals [Circ. Res. 29, 664 (1971)].
The results are illustrated in FIG. 1.
At first a dose--effect curve was registered for AII on rats. The peptides were administered subcutaneously, in 1 mg/kg doses. In the fifth minute after administration and repeatedly in the next three hours 1.0 μg/kg of AII was added intravenously. The statistical evalulation was performed by variancy analysis.

Compound	inhibition of aldosterone production pA2 (aldosterone production)	vasoconstriction inhibition, pA2 [2]	also measured
CNCC(=O)N[C@@H](CCCN=C(N)N)C(=O)N[C@H](C(=O)N[C@@H](Cc1ccc(O)cc1)C(=O)N[C@H](C(=O)N[C@@H](Cc1c[nH]cn1)C(=O)N1CCC[C@H]1C(=O)O[C@@H](C)C(=O)O)C1CCCCC1)C(C)C [Sar^1, Chg^5, Lac^8 --AII] (H-[Sar]RVY[Chg]HP[Lac]-OH)	–	–	initial hypertensive activity compared with Saralasin (FIG. 2) (awake rats [1]): significantly lower initial hypertensive activity than Salarasine
CCOC(=O)[C@H](C)OC(=O)[C@@H]1CCCN1C(=O)[C@H](Cc1c[nH]cn1)NC(=O)[C@@H](NC(=O)[C@H](Cc1ccc(O)cc1)NC(=O)[C@@H](NC(=O)[C@H](CCCNC(=N)N)NC(=O)CNC)C(C)C)[C@@H](C)CC [Sar^1, Lac^8 --AII--OEt, reference compound]	9.27	–	–
CC(C)[C@H](NC(=O)[C@H](CCCNC(=N)N)NC(=O)[C@H](C)O)C(=O)N[C@@H](Cc1ccc(O)cc1)C(=O)N[C@H](C(=O)N[C@@H](Cc1c[nH]cn1)C(=O)N1CCC[C@H]1C(=O)O[C@@H](C)C(=O)O)C1CCCC1 [Lac^1, Cpg^5, Lac^8 --AII] (H-[Lac]RVY[Gly(cPent)]HP[Lac]-OH)	8.392	8.52	–
CNCC(=O)N[C@@H](CCCNC(=N)N)C(=O)N[C@H](C(=O)N[C@@H](Cc1ccc(O)cc1)C(=O)N[C@H](C(=O)N[C@@H](Cc1c[nH]cn1)C(=O)N1CCC[C@H]1C(=O)O[C@@H](C)C(=O)O)C1CCCC1)C(C)C [Sar^1, Cpg^5, Lac^8 --AII] (H-[Sar]RVY[Gly(cPent)]HP[Lac]-OH)	9.649	11.09	–
CNCC(=O)N[C@@H](CCCNC(=N)N)C(=O)N[C@H](C(=O)N[C@@H](Cc1ccc(O)cc1)C(=O)N[C@H](C(=O)N[C@@H](Cc1c[nH]cn1)C(=O)N1CCC[C@H]1C(=O)O[C@@H](C)C(=O)O)C1CCCCC1)C(C)C [Sar^1, Chg^5, Lac^8 --AII] (H-[Sar]RVY[Chg]HP[Lac]-OH)	10.390	11.29	–
CC(C)[C@H](NC(=O)[C@H](CCCNC(=N)N)NC(=O)CO)C(=O)N[C@@H](Cc1ccc(O)cc1)C(=O)N[C@H](C(=O)N[C@@H](Cc1c[nH]cn1)C(=O)N1CCC[C@H]1C(=O)O[C@@H](C)C(=O)O)C1CCCCC1 [HOAc^1, CHg^5, Lac^8 --AII] (Glycolyl-RVY[Chg]HP[Lac]-OH)	8.614	9.53	–
Sar^1, HMV^8 --AII [reference compound]	–	–	inhibition of aldosterone production pA2 (aldosterone production; in vitro, pA2): 10.589
[Sar^1, Thr^8 ]-AII	–	–	agonistic activity [3]: small; aldosterone release inhibiting effect (aldosterone release): no aldosterone release inhibiting effect
CC[C@H](C)[C@H](NC(=O)[C@@H]1CCCN1C(=O)[C@H](Cc1c[nH]cn1)NC(=O)[C@@H](NC(=O)[C@H](Cc1ccc(O)cc1)NC(=O)[C@@H](NC(=O)[C@H](CCCNC(=N)N)NC(=O)CON)C(C)C)[C@@H](C)CC)C(=O)O [OGly^1, Ile^8 --AII, reference compound]	7.94	–	–
CC[C@H](C)[C@H](NC(=O)[C@H](Cc1ccc(O)cc1)NC(=O)[C@@H](NC(=O)[C@H](CCCNC(=N)N)NC(=O)CNC)C(C)C)C(=O)N[C@@H](Cc1c[nH]cn1)C(=O)N1CCC[C@H]1C(=O)O[C@@H](C)C(=O)O [Sar^1, Lac^8 --AII, reference compound]	9.649	11.02	–
CNCC(=O)N[C@@H](CCCNC(=N)N)C(=O)N[C@H](C(=O)N[C@@H](Cc1ccc(O)cc1)C(=O)N[C@H](C(=O)N[C@@H](Cc1c[nH]cn1)C(=O)N1CCC[C@H]1C(=O)N[C@@H](C)C(=O)O)C1CCCCC1)C(C)C [Sar^1, Chg^5, Ala^8 --AII, Sar^1, Chg^5, Ala^8 -AII]	9.981	11.18	duration of hypotensive activity compared with Saralasin (FIG. 1) (awake rats [4]): signicantly more prolonged hypotensive activity than Saralasin
CNCC(=O)N[C@@H](CCCN=C(N)N)C(=O)N[C@H](C(=O)N[C@@H](Cc1ccc(O)cc1)C(=O)N[C@H](C(=O)N[C@@H](Cc1cnc[nH]1)C(=O)N1CCC[C@H]1C(=O)N[C@@H](C)C(=O)O)C(C)C)C(C)C [Sar^1, Val^5, Ala^8 --AII, Saralasin, reference compound]	–	–	inhibition of aldosterone production pA2 (aldosterone production; in vitro, pA2): 9.634; vasoconstriction inhibition, pA2 ([2]; AII-induced vasoconstriction, isolated rabbit aorta, pA2): 11.10
CC[C@H](C)[C@H](NC(=O)[C@H](Cc1ccc(O)cc1)NC(=O)[C@@H](NC(=O)[C@H](CCCNC(=N)N)NC(=O)CNC)C(C)C)C(=O)N[C@@H](Cc1c[nH]cn1)C(=O)N1CCC[C@H]1C(=O)N[C@H](C(=O)OC)[C@@H](C)CC [Sar^1, Ile^8 --AII--OMe, reference compound]	8.98	–	–
CNCC(=O)N[C@@H](CCCNC(=N)N)C(=O)N[C@H](C(=O)N[C@@H](Cc1ccc(O)cc1)C(=O)N[C@H](C(=O)N[C@@H](Cc1c[nH]cn1)C(=O)N1CCC[C@H]1C(=O)N[C@@H](C)C(=O)O)C1CCCC1)C(C)C [Sar^1, Cpg^5, Ala^8 --AII]	9.933	9.42	–
